# Measured values reported in PMC4669708 (Cell Death & Disease, 2015).
# Read-outs that look alike come from different tables or passages of the source.
# Legend:
# L929 cells = experiment: TNF-α/z-VAD-FMK-induced necroptosis; assay type: cell-based, murine; details: Supplementary Figures 3c, d
# Procedure: (§1) Cells were seeded in 12-, 24- or 96-well plates at proper cell density. For necroptosis or apoptosis assays, cells were incubated with the indicated compound combinations at concentrations stated for 14–24 h. Smac mimetic and z-VAD-FMK were added 30–60 min before treatment with TNF-α, FasL or TRAIL. Cell viability was determined using CellTiter Glo Luminescent Cell Viability Assay (Promega, Fitchburg, WI, USA) according to the manufacturer's instructions. Luminescence was recorded with a SpectraMax M5Multimode plate reader (Molecular Devices, Sunnyvale, CA, USA). For flow cytometry-based determination of viability, cells were harvested, collected by centrifugation, washed once and resuspended in staining buffer (1 × PBS, 10% FBS). Cells were incubated with 0.5 μg/ml PI for 10 min at room temperature (RT) in the dark. Flow cytometric analyses were performed on an LSR Fortessa (BD Biosciences) and analyzed with FlowJo software version 7.6.3 (Tree Star Inc, Ashland, OR, USA). Cell size was evaluated by forward scatter. PI-negative normal-sized cells were considered living and data were normalized to values of untreated controls. For detection of apoptosis, cells were resuspended in Annexin V Binding Buffer (BioLegend, San Diego, CA, USA) and stained with 0.5 μg/ml PI and Alexa Fluor 647 Annexin V (BioLegend) according to manufacturer's instructions.
# RIPK3 to MLKL binding = RIPK3 to MLKL binding (Homo sapiens, UniProt Q9Y572); details: HT-29 HA-MLKL cells, doxycycline overnight; 0.5 μM ponatinib, 5 μM pazopanib
# Jurkat E6.1 cells = experiment: FasL-induced apoptosis, cell viability; assay type: cell-based; details: 100 ng/ml human FasL, 24 h; 0.5 μM ponatinib, 5 μM pazopanib
# Procedure: as §1
# [1] = test system: FADD-deficient Jurkat cells; experiment: Flow cytometry viability (propidium iodide / forward scatter), TNFα-induced necroptosis; assay type: cell-based; details: human, 6 h
# Procedure: as §1
# HT-29 cells = experiment: Drug toxicity, cell viability 24 h; assay type: cell-based; details: Homo sapiens, HT-29, 24 h
# Procedure: as §1, with “controls.” for “controls. For detection of apoptosis, cells were resuspended in Annexin V Binding Buffer (BioLegend, San Diego, CA, USA) and stained with 0.5 μg/ml PI and Alexa Fluor 647 Annexin V (BioLegend) according to manufacturer's instructions.”
# endogenous RIPK3 = target: T1, endogenous RIPK3 (Homo sapiens, UniProt Q9Y572); experiment: Cellular thermal shift assay (CETSA); assay type: cell-based; details: FADD-deficient Jurkat cells, 0.5 μM, 3 h
# T1 construct: endogenous in cells; host or cells: FADD-deficient Jurkat I2.1
# Procedure: Drug target engagement in cells, causing stabilization of the respective protein, was analyzed essentially as described previously.[55] […] After treatment, cells were collected by centrifugation and resuspended in 1x PBS. The cell suspension was aliquoted into PCR tubes and heated for 3 min at 42, 46, 50, 54, 58 or 62 °C. Subsequently, cells were lysed by three consecutive freeze–thaw cycles using liquid nitrogen. The soluble fraction was separated from precipitated proteins by centrifugation at 13000 r.p.m. and 4 °C for 20 min. The supernatant, containing the soluble proteins, was transferred to a fresh tube and analyzed by immunoblotting.
# RIPK3 = RIPK3 (Homo sapiens, UniProt Q9Y572); experiment: Recombinant kinase assay; assay type: biochemical; parameters: purchased Signalchem R09-10G
# Procedure: Recombinant RIPK1 or RIPK3 protein was incubated with the substrate MBP in kinase assay buffer (40 mM Tris-HCl pH 7.5, 10 mM MgCl2 and 1 mM DTT) in presence of 50 μM ATP, 5 μCi [γ-32 P]ATP and the indicated inhibitors in a total volume of 20 μl. […] The terminated reactions were spotted onto a SAM2 Biotin Capture membrane (Promega) and further processed according to the manufacturer's instructions. […] Data were normalized to a DMSO-treated control sample. For autoradiography, the reactions were stopped by addition of 5 μl 4x Laemmli buffer and incubated for 5 min at 95 °C.
# HT-29 MLKL S358D cells = experiment: Cell death driven by doxycycline-induced MLKL S358D expression; assay type: cell-based, human; details: 2 μg/ml doxycycline overnight; 10 μM NSA, 0.5 μM ponatinib
# Procedure: as §1
# Chain of RIPK3 (Q9Y572 whole entry): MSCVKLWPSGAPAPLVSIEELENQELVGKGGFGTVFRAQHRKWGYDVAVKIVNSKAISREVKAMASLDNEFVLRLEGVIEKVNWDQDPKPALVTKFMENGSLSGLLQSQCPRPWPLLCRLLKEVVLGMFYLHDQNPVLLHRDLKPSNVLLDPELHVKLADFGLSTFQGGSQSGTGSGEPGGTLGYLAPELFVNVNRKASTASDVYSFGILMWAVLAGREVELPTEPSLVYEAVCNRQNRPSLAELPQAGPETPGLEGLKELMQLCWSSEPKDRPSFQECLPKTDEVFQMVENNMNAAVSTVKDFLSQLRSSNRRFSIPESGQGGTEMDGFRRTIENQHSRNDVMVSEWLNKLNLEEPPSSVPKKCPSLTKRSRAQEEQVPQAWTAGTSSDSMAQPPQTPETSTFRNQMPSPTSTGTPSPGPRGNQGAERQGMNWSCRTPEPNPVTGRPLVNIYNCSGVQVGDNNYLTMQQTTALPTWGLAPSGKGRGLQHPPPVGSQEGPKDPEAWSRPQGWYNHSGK
# T1 sequence (Q9Y572 whole entry): as above
# Chain of RIPK3 to MLKL binding (Q9Y572 whole entry): as above
smiles,measurement,setting,value
"Cc1ccc(C(=O)Nc2ccc(CN3CCN(C)CC3)c(C(F)(F)F)c2)cc1C#Cc1cnc2cccnn12 [ponatinib, Ponatinib]",protection from necroptosis,L929 cells,the effect was partial and confined to a small dosage window around 100 nM
same,binding of RIPK3 to MLKL,RIPK3 to MLKL binding,efficiently blocked binding of RIPK3 to MLKL
same,inhibition of apoptotic cell death triggered by FasL,Jurkat E6.1 cells,none of the drugs inhibited apoptotic cell death
same,viable cells,[1],"79,3%"
same,IC50,HT-29 cells; read-out: IC50 (printed in Figure 2e),8.89 µM
same,IC50,HT-29 cells; read-out: IC50 (toxicity),8.9 µM
same,RIPK3 thermostability (target engagement),endogenous RIPK3,led to a shift in the RIPK3 thermostability curve
same,RIPK3 kinase activity (MBP phosphorylation),"RIPK3; 50 μM ATP, Figure 4e inhibitors at 10 μM",strongly blocked phosphorylation
same,RIPK3 autophosphorylation,"RIPK3; autoradiography, Supplementary Figure 4c",efficiently blocked
same,block of cell death driven by MLKL S358D expression,HT-29 MLKL S358D cells,did not prevent cell death
